Experimental data taken from EP0686628A2, “Prostaglandin F esters” (ONO PHARMACEUTICAL CO., LTD., priority 1994, dated 1995).

Key:
intraocular pressure [1] = assay: Experiment 1: ocular hypotensive effect (Δ IOP) after instillation of a 0.1% solution into the rabbit eye; format: in vivo, Male Japanese White rabbits; conditions: 0.1% solution instilled into left eye, vehicle-corrected, mean of three or four samples
Procedure: (§1) Male Japanese White rabbits weighing about 3.0 kg were lightly held and the intraocular pressure was measured by Applanation Pneumatonograph after corneal anesthesia with instillation of 0.4% oxybuprocaine hydrochloride solution.
(§2) A test compound was dissolved at 0.1% in vehicle which contains 2.5% glycerol and 2.0% polysorbate 80 in sterile purified water. The test solution at volume of […] was instilled into the left eye of each rabbit and the right eye remained untreated. As a control, the vehicle was instilled into the left eye in a control group. Δ IOP (mmHg), which is an index of ocular hypotensive effect, were calculated using below formula. Δ IOP = (IOPt - IOP0) - (IOPvt - IOPv0) [formula] IOPt : IOP at t hr. after instillation of a test solution IOPvt : IOP at t hr. after instillation of vehicle IOP0 : IOP just before instillation of a test solution IOPv0 : IOP just before instillation of vehicle
For example, the maximum reduction of IOP after instillation of the compounds shown as examples 1, 1(a), 1(b), 2, 3, 4 and 5 hereinafter were 6.0, 5.7, 5.4, 4.0, 4.7, 6.7 and 9.8 mmHg, respectively. And when the compound of the present invention was instilled, bulbar and palpebral conjunctival hyperemia could hardly be observed.

intraocular pressure [2] = assay: Experiment 2: ocular hypotensive effect (Δ IOP) after instillation of a 0.02% solution, comparison with compared compounds; format: in vivo, Male Japanese White rabbits; conditions: rabbit; for Ocular Hypotensive Effects on Intraocular Pressure (Δ IOP), Time after Administration 0 hr.: 0 hr. after administration (baseline); for Ocular Hypotensive Effects on Intraocular Pressure (Δ IOP), Time after Administration 1 hr.: 1 hr. after administration; for Ocular Hypotensive Effects on Intraocular Pressure (Δ IOP), Time after Administration 2 hr.: 2 hr. after administration; for Ocular Hypotensive Effects on Intraocular Pressure (Δ IOP), Time after Administration 4 hr.: 4 hr. after administration; for Ocular Hypotensive Effects on Intraocular Pressure (Δ IOP), Time after Administration 6 hr.: 6 hr. after administration; for initial elevation of the intraocular pressure: side effect
Procedure: as §1, §2
Further, the compounds of the present invention were compared with the compounds shown concretely in related arts hereinbefore described. The compounds have chemical structures quite similar to the compounds of the present invention were selected as compared compounds. 0.02% solutions of the compounds of the present invention were compared with the compared compounds, because the 0.02% solution is close to concentration used actually.
The compounds of the present invention and compared compounds were dissolved in vehicle at 0.02%, and Δ IOPs (mmHg) after instillation of these solution, which are the index of ocular hypotensive effects, were calculated in the same way as the experiment 1.
The graphs of the results shown in the Table 1 and Table 2 were Figure 1 and Figure 2.

| duration of the initial elevation of intraocular pressure (intraocular pressure [2]) [h] | Structure (SMILES) | maximum reduction of IOP after instillation (intraocular pressure [1]) [mmHg] | time after administration at which the ocular hypotensive effect appeared (intraocular pressure [2]) [h] | time after administration for which the activity was maintained (intraocular pressure [2]) [h] | Ocular Hypotensive Effects on Intraocular Pressure (Δ IOP), Time after Administration 0 hr. (intraocular pressure [2]) [mmHg] | Ocular Hypotensive Effects on Intraocular Pressure (Δ IOP), Time after Administration 1 hr. (intraocular pressure [2]) [mmHg] | Ocular Hypotensive Effects on Intraocular Pressure (Δ IOP), Time after Administration 2 hr. (intraocular pressure [2]) [mmHg] | Ocular Hypotensive Effects on Intraocular Pressure (Δ IOP), Time after Administration 4 hr. (intraocular pressure [2]) [mmHg] | activity (reduction of intraocular pressure) reached at 4 hrs. after administration (intraocular pressure [2]; 4 hrs. after administration, printed as magnitude) [mmHg] | Ocular Hypotensive Effects on Intraocular Pressure (Δ IOP), Time after Administration 6 hr. (intraocular pressure [2]) [mmHg] | initial elevation of the intraocular pressure (intraocular pressure [2]) |
| --- | --- | --- | --- | --- | --- | --- | --- | --- | --- | --- | --- |
| – | CCCCC(C)(C)[C@H](O)CC[C@@H]1[C@@H](C/C=C\CCCC(=O)OC(C)C)[C@@H](O)C[C@H]1O [Example 2, 16,16-dimethyl-13,14-dihydro-PGF2α isopropyl ester] | 4.0 | – | – | – | – | – | – | – | – | – |
| – | CCCCC[C@H](O)CC[C@@H]1[C@@H](C/C=C\CCCC(=O)OC2CCCCC2)[C@H](O)C[C@H]1O [Example 1, 13,14-dihydro-PGF2β cyclohexyl ester] | 6.0 | 1 | 6 | 0 | -2.0 | -2.3 | -6.6 | 6.6 | -1.8 | did not show initial elevation |
| – | CCCCC(C)(C)[C@H](O)/C=C/[C@@H]1[C@@H](C/C=C\CCCC(=O)OC(C)C)[C@H](O)C[C@H]1O [Example 4, 16,16-dimethyl-PGF2β isopropyl ester] | 6.7 | 1 | 6 | 0 | -5.0 | -5.0 | -12.3 | – | -9.6 | did not show initial elevation |
| – | CCCCC[C@H](O)CC[C@@H]1[C@@H](C/C=C\CCCC(=O)OC2CCCCC2)[C@@H](O)C[C@H]1O [Compared compound 1, 13,14-dihydro-PGF2α cyclohexyl ester, reference compound] | – | 4 | – | 0 | 11.3 | 2.3 | -5.6 | – | -9.3 | showed extremely strong initial elevation |
| – | CCCCC[C@H](O)CC[C@@H]1[C@@H](C/C=C\CCCC(=O)Oc2ccccc2)[C@H](O)C[C@H]1O [Example 1(a), 13,14-dihydro-PGF2β phenyl ester] | 5.7 | – | – | – | – | – | – | – | – | – |
| – | CCCCC[C@H](O)CC[C@@H]1[C@@H](C/C=C\CCCC(=O)OCc2ccccc2)[C@H](O)C[C@H]1O [Example 1(b), 13,14-dihydro-PGF2β benzyl ester] | 5.4 | – | – | – | – | – | – | – | – | – |
| – | CCCCC(C)(C)[C@H](O)/C=C/[C@@H]1[C@@H](C/C=C\CCCC(=O)OC(C)C)[C@@H](O)C[C@H]1O [Example 3, 16,16-dimethyl-PGF2α isopropyl ester] | 4.7 | – | – | – | – | – | – | – | – | – |
| 4 | CCCCC(C)(C)[C@H](O)/C=C/[C@@H]1[C@@H](C/C=C\CCCC(=O)O)[C@@H](O)C[C@H]1O [Compared compound 2, 16,16-dimethyl-PGF2α, reference compound] | – | 4 | – | 0 | 4.5 | 4.5 | -2.0 | – | -0.8 | showed initial elevation |
| – | CCCCC(C)(C)[C@H](O)/C=C/[C@@H]1[C@@H](C/C=C\CCCC(=O)OCC)[C@H](O)C[C@H]1O [Example 5, 16,16-dimethyl-PGF2β ethyl ester] | 9.8 | 1 | 6 | 0 | -2.0 | -3.5 | -7.3 | – | -7.3 | did not show initial elevation |
